Results on eleven compounds are retold here after US9113629B2, “4-amino-6-(4-substituted-phenyl)-picolinates and 6-amino-2-(4-substituted-phenyl)-pyrimidine-4-carboxylates and their use as herbicides” (DOW AGROSCIENCES LLC, priority 2013, dated 2015).

What all share (assay): Post-emergent Test III, herbicidal activity in wheat and barley
Common to all, as to format: in vivo

The test system of assay [1] is SETVI: green foxtail (Setaria viridis). As to conditions: for pest or weed control at 35 g/ha / pest or weed control at 70 g/ha / pest or weed control at 140 g/ha: Setaria viridis, post-emergence, 504 h, read-out: Visual Growth Reduction (%) 21 Days After Application SETVI; for pest or weed control at 35 g/ha: 35 g ai/ha; for pest or weed control at 70 g/ha: 70 g ai/ha; for GR50 SETVI / GR80 SETVI: probit analysis; for pest or weed control at 140 g/ha: 140 g ai/ha. The method in brief:
(§1)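 Plants at the second to third true-leaf stage, grown in a greenhouse at about 18/17 °C with a 14 h photoperiod, were sprayed post-emergence at 187 L/ha with the high rate and ½× to 1/16× serial dilutions in an acetone/DMSO/crop-oil/surfactant carrier. Injury was rated visually at 21 d on a 0–100% scale, and GR20–GR90 were derived by probit analysis.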

The subject of assay [2] is ALOMY: black-grass (Alopecurus myosuroides). As to conditions: for pest or weed control at 35 g/ha / pest or weed control at 70 g/ha / pest or weed control at 140 g/ha: Alopecurus myosuroides, post-emergence, 504 h, read-out: Visual Growth Reduction (%) 21 Days After Application ALOMY; for pest or weed control at 35 g/ha: 35 g ai/ha; for pest or weed control at 70 g/ha: 70 g ai/ha; for pest or weed control at 140 g/ha: 140 g ai/ha; for GR50 ALOMY / GR80 ALOMY: probit analysis, 21 days after application; for GR50 ALOMY: dose for growth reduction of 50 percent; for GR80 ALOMY: dose for growth reduction of 80 percent. The method, boiled down: as §1

The subject of assay [3] is BROTE: downy brome (Bromus tectorum). As to conditions: for pest or weed control at 35 g/ha / pest or weed control at 70 g/ha / pest or weed control at 140 g/ha: Bromus tectorum, post-emergence, 504 h, read-out: Visual Growth Reduction (%) 21 Days After Application BROTE; for pest or weed control at 35 g/ha: 35 g ai/ha; for pest or weed control at 70 g/ha: 70 g ai/ha; for pest or weed control at 140 g/ha: 140 g ai/ha; for GR50 BROTE / GR80 BROTE: probit analysis, 21 days after application; for GR50 BROTE: dose for growth reduction of 50 percent; for GR80 BROTE: dose for growth reduction of 80 percent. The method, boiled down: as §1

In assay [4] the test system is PAPRH: common poppy (Papaver rhoeas). As to conditions: for pest or weed control at 35 g/ha / pest or weed control at 70 g/ha / pest or weed control at 140 g/ha: Papaver rhoeas, post-emergence, 504 h, read-out: Visual Growth Reduction (%) 21 Days After Application PAPRH; for pest or weed control at 35 g/ha: 35 g ai/ha; for pest or weed control at 70 g/ha: 70 g ai/ha; for pest or weed control at 140 g/ha: 140 g ai/ha; for GR50 PAPRH / GR80 PAPRH: probit analysis. The method, boiled down:
as §1

[5] abbreviates: Table 9, dose for 50 percent growth reduction, 21 d.
The mark [6] stands for this setting: Table 9, dose for 80 percent growth reduction, 21 d.
Where [7] appears, read: dose for growth reduction of 50 percent, 21 days after application.
[8] abbreviates: dose for growth reduction of 80 percent, 21 days after application.
Setting [9] is: Table 8, dose for 50 percent growth reduction, 21 d.
Where [10] appears, read: Table 8, dose for 80 percent growth reduction, 21 d.

Each structure is given as a SMILES string. Like-named read-outs stand apart in the source and are kept apart here.

As to `C#Cc1ccc(-c2nc(N)c(OC)c(C(=O)O)n2)cc1` [Compound 28], in assay [1] (Table 9, post-emergent, 21 d), the pest or weed control at 35 g/ha is 0 to 29% and the pest or weed control at 70 g/ha lay within 0 to 29%. In addition, in assay [1] (setting [5]), the “GR50 SETVI” value was above 140 g ai/ha. The “GR80 SETVI” value in assay [1] (setting [6]) was above 140 g ai/ha.

For the compound `COC(=O)c1nc(-c2ccc(Br)cc2F)nc(N)c1OC` [Compound 35], in assay [1] (Table 9, post-emergent, 21 d), the pest or weed control at 35 g/ha lay in the range of 0 to 29% and the pest or weed control at 70 g/ha fell in the range of 30 to 44%. The “GR50 SETVI” value in assay [1] (setting [5]) came to 79 g ai/ha. Further, the “GR80 SETVI” value in assay [1] (setting [6]) is above 140 g ai/ha.

Regarding `COc1c(N)nc(-c2ccc(Br)cc2F)nc1C(=O)O` [Compound 46], in assay [1] (Table 9, post-emergent, 21 d), the pest or weed control at 35 g/ha was 0 to 29%, the pest or weed control at 70 g/ha lay within 30 to 44% and the pest or weed control at 140 g/ha lay within 30 to 44%. In assay [1] (setting [5]), the “GR50 SETVI” value is on record as above 140 g ai/ha. For the same compound, in assay [1] (setting [6]), the “GR80 SETVI” value is above 140 g ai/ha.

For the compound `Nc1cc(-c2ccc(Br)c(F)c2F)nc(C(=O)O)c1Cl` [Compound 91], in assay [2], the pest or weed control at 35 g/ha lay in the range of 45 to 59%, the pest or weed control at 70 g/ha was in the range of 45 to 59%, the pest or weed control at 140 g/ha was in the range of 45 to 59% and the “GR50 ALOMY” value was determined as 98 g ai/ha. In addition, the “GR80 ALOMY” value in assay [2] was above 140 g ai/ha. In addition, in assay [1], the pest or weed control at 35 g/ha was in the range of 60 to 74%, the pest or weed control at 70 g/ha fell in the range of 75 to 84% and the pest or weed control at 140 g/ha fell in the range of 75 to 84%. Moreover, the “GR50 SETVI” value in assay [1] (setting [7]) was 6 g ai/ha. Further, in assay [1] (setting [8]), the “GR80 SETVI” value was 105 g ai/ha. In assay [3], the pest or weed control at 35 g/ha was in the range of 45 to 59%, the pest or weed control at 70 g/ha lay in the range of 45 to 59%, the pest or weed control at 140 g/ha was 30 to 44% and the “GR50 BROTE” value was 29 g ai/ha. Moreover, the “GR80 BROTE” value in assay [3] was above 140 g ai/ha. Moreover, in assay [4], the pest or weed control at 35 g/ha fell in the range of 95 to 100%, the pest or weed control at 70 g/ha lay in the range of 95 to 100% and the pest or weed control at 140 g/ha was in the range of 95 to 100%. The “GR50 PAPRH” value in assay [4] (setting [7]) is reported as 1 g ai/ha. Also, in assay [4] (setting [8]), the “GR80 PAPRH” value was 1 g ai/ha.

On to `Nc1cc(-c2ccc(Br)c(F)c2)nc(C(=O)O)c1Cl` [Compound 110, 4-Amino-6-(4-bromo-3-fluorophenyl)-3-chloropicolinic acid], for which, in assay [4] (Table 8, post-emergent, 21 d), the pest or weed control at 35 g/ha was 95 to 100% and the pest or weed control at 70 g/ha was 95 to 100%. For the same compound, in assay [4] (setting [9]), the “GR50 PAPRH” value was determined as 1 g ai/ha. In addition, in assay [4] (setting [10]), the “GR80 PAPRH” value worked out at 1 g ai/ha.

With `COc1c(N)nc(-c2ccc(Br)c(F)c2)nc1C(=O)O` [Compound 113, 6-Amino-2-(4-bromo-3-fluorophenyl)-5-methoxypyrimidine-4-carboxylic acid], in assay [4] (Table 8, post-emergent, 21 d), the pest or weed control at 35 g/ha is 95 to 100% and the pest or weed control at 70 g/ha fell in the range of 95 to 100%. Besides, in assay [4] (setting [9]), the “GR50 PAPRH” value worked out at 1 g ai/ha. Also, the “GR80 PAPRH” value in assay [4] (setting [10]) amounted to 1 g ai/ha.

Regarding `C#Cc1ccc(-c2nc(N)c(OC)c(C(=O)O)n2)c(F)c1F` [Compound 154], in assay [1] (Table 9, post-emergent, 21 d), the pest or weed control at 35 g/ha is 30 to 44%, the pest or weed control at 70 g/ha is 60 to 74% and the pest or weed control at 140 g/ha lay within 75 to 84%. Also, the “GR50 SETVI” value in assay [1] (setting [5]) stood at 56 g ai/ha. Further, the “GR80 SETVI” value in assay [1] (setting [6]) is 109 g ai/ha.

Consider `Nc1cc(-c2ccc(Br)cc2)nc(C(=O)O)c1Cl` [Compound 168], for which, in assay [1] (Table 9, post-emergent, 21 d), the pest or weed control at 35 g/ha was in the range of 45 to 59% and the pest or weed control at 70 g/ha was 60 to 74%. In assay [1] (setting [5]), the “GR50 SETVI” value is reported as 28 g ai/ha. Besides, in assay [1] (setting [6]), the “GR80 SETVI” value came to 70 g ai/ha.

Consider `COC(=O)c1nc(-c2ccc(F)c(F)c2F)c(F)c(N)c1Cl` [Compound 186], for which, in assay [2], the pest or weed control at 35 g/ha fell in the range of 0 to 29%, the pest or weed control at 70 g/ha lay within 0 to 29%, the pest or weed control at 140 g/ha is 0 to 29% and the “GR50 ALOMY” value is recorded as above 140 g ai/ha. Moreover, the “GR80 ALOMY” value in assay [2] is on record as above 140 g ai/ha. Further, in assay [3], the pest or weed control at 35 g/ha fell in the range of 0 to 29%, the pest or weed control at 70 g/ha lay in the range of 0 to 29%, the pest or weed control at 140 g/ha was 0 to 29% and the “GR50 BROTE” value is above 140 g ai/ha. The “GR80 BROTE” value in assay [3] was above 140 g ai/ha.

As to `COC(=O)c1nc(-c2ccc(F)cc2)c(F)c(N)c1Cl` [Compound 204], in assay [2], the pest or weed control at 35 g/ha lay in the range of 0 to 29%, the pest or weed control at 70 g/ha lay in the range of 45 to 59%, the pest or weed control at 140 g/ha was in the range of 45 to 59% and the “GR50 ALOMY” value was found to be 105 g ai/ha. The “GR80 ALOMY” value in assay [2] was above 140 g ai/ha. Besides, in assay [3], the pest or weed control at 35 g/ha is 0 to 29%, the pest or weed control at 70 g/ha fell in the range of 0 to 29%, the pest or weed control at 140 g/ha lay in the range of 30 to 44% and the “GR50 BROTE” value was above 140 g ai/ha. In addition, in assay [3], the “GR80 BROTE” value is reported as above 140 g ai/ha.

`Nc1c(F)c(-c2ccc(Cl)c(F)c2)nc(C(=O)O)c1Cl` [Compound 217]: in assay [2], the pest or weed control at 35 g/ha was in the range of 75 to 84%, the pest or weed control at 70 g/ha lay within 85 to 94%, the pest or weed control at 140 g/ha was 85 to 94% and the “GR50 ALOMY” value amounted to 12 g ai/ha. Also, in assay [2], the “GR80 ALOMY” value was determined as 31 g ai/ha. In assay [1], the pest or weed control at 35 g/ha is 75 to 84%, the pest or weed control at 70 g/ha is 75 to 84% and the pest or weed control at 140 g/ha lay within 75 to 84%. Besides, in assay [1] (setting [7]), the “GR50 SETVI” value is reported as 46 g ai/ha. Besides, the “GR80 SETVI” value in assay [1] (setting [8]) is given as above 140 g ai/ha. Besides, in assay [3], the pest or weed control at 35 g/ha lay in the range of 75 to 84%, the pest or weed control at 70 g/ha lay within 85 to 94%, the pest or weed control at 140 g/ha was 85 to 94% and the “GR50 BROTE” value came out at 15 g ai/ha. Further, the “GR80 BROTE” value in assay [3] is given as 33 g ai/ha. Also, in assay [4], the pest or weed control at 35 g/ha lay within 95 to 100%, the pest or weed control at 70 g/ha was 95 to 100% and the pest or weed control at 140 g/ha lay in the range of 95 to 100%. Further, the “GR50 PAPRH” value in assay [4] (setting [7]) is 1 g ai/ha. In assay [4] (setting [8]), the “GR80 PAPRH” value is recorded as 1 g ai/ha.
